Source: US20080103049A1, “Benzoyl-Substituted Serineamides” (BSDG Aktiengesellschaft, priority 2004, published 2008)

Tests used:
Assay type in all cases: in vivo
[1] = system: Setaria viridis (green foxtail); assay: greenhouse post-emergence herbicidal test, green foxtail; details: for post-emergence action against green foxtail: application rate 0.5 kg/ha a.s.; for post-emergence control of green foxtail: application rate 1.0 kg/ha a.s.
Description: (§1) The culture containers used were plastic flowerpots containing loamy sand with approximately 3.0% of humus as the substrate. The seeds of the test plants were sown separately for each species.
(§2) For the post-emergence treatment, the test plants were first grown to a height of 3 to 15 cm, depending on the plant habit, and only then treated with the active ingredients which had been suspended or emulsified in water. For this purpose, the test plants were either sown directly and grown in the same containers, or they were first grown separately as seedlings and transplanted into the test containers a few days prior to treatment. The rate of application for the post-emergence treatment was 1.0 or 0.5 kg/ha of a.s. (active substance).
(§3) Depending on the species, the plants were kept at 10-25° C. or 20-35° C. The test period extended over 2 to 4 weeks. During this time, the plants were tended, and their response to the individual treatments was evaluated.
(§4) Evaluation was carried out using a scale from 0 to 100. 100 means no emergence of the plants, or complete destruction of at least the aerial parts, and 0 means no damage, or normal course of growth.
(§5) The plants used in the greenhouse experiments belonged to the following species: […]

[2] = system: Amaranthus retroflexus (pig weed); assay: greenhouse post-emergence herbicidal test, pig weed; details: for post-emergence action against pig weed: application rate 0.5 kg/ha a.s.; for post-emergence control of pig weed: application rate 1.0 kg/ha a.s.
Description: as §1, §2, §3, §4, §5

[3] = system: Chenopodium album (lambsquarters); assay: greenhouse post-emergence herbicidal test, lambsquarters; details: for post-emergence action against lambsquarters: application rate 0.5 kg/ha a.s.; for post-emergence control of lambsquarters: application rate 1.0 kg/ha a.s.
Description: as §1, §2, §3, §4, §5

CNC(=O)C(NC(=O)c1ccc(F)cc1C(F)(F)F)C(O)c1ccc(Cl)s1 (mixture of isomers) [Compound 3.28]
very good: post-emergence action against green foxtail [1] | post-emergence action against pig weed [2] | post-emergence action against lambsquarters [3]

CC[Si](CC)(CC)OC(c1ccc(Cl)s1)[C@H](NC(=O)c1ccc(F)cc1C(F)(F)F)C(=O)NC (stereo partly drawn) [Compound 3.79]
very good: post-emergence control of green foxtail [1] | post-emergence control of pig weed [2] | post-emergence control of lambsquarters [3]

CNC(=O)C(NC(=O)c1ccc(F)cc1C(F)(F)F)C(O)c1cccnc1Cl (mixture of isomers) [Compound 3.39]
very good: post-emergence control of green foxtail [1] | post-emergence control of pig weed [2] | post-emergence control of lambsquarters [3]

CNC(=O)C(NC(=O)c1ccc(F)cc1C(F)(F)F)C(O)c1ccccn1 (mixture of isomers) [Compound 3.36]
very good: post-emergence action against green foxtail [1] | post-emergence action against pig weed [2] | post-emergence action against lambsquarters [3]

CC[Si](CC)(CC)OC(c1ccsc1)C(NC(=O)c1ccc(F)cc1C(F)(F)F)C(=O)NC [Compound 3.13, (2S,3R)-threo-4-Fluoro-N-(1-methylcarbamoyl-2-thiophen-3-yl-2-triethylsilanyloxyethyl)-2-trifluoromethylbenzamide]
very good: post-emergence control of green foxtail [1] | post-emergence control of pig weed [2] | post-emergence control of lambsquarters [3]

CNC(=O)C(NC(=O)c1ccc(F)cc1C(F)(F)F)C(OC(=O)N(C)C)c1cccnc1F (racemic) [Compound 3.71]
very good: post-emergence action against green foxtail [1] | post-emergence action against pig weed [2] | post-emergence action against lambsquarters [3]

CNC(=O)C(NC(=O)c1ccc(F)cc1C(F)(F)F)C(OC(=O)N(C)C)c1ccc[n+]([O-])c1Cl (racemic) [Compound 3.75]
very good: post-emergence action against green foxtail [1] | post-emergence action against pig weed [2] | post-emergence action against lambsquarters [3]

CNC(=O)C(NC(=O)c1ccc(F)cc1C(F)(F)F)C(OC(C)=O)c1ccccn1 (mixture of isomers) [Compound 3.53]
very good: post-emergence action against green foxtail [1] | post-emergence action against pig weed [2] | post-emergence action against lambsquarters [3]

CNC(=O)C(NC(=O)c1ccccc1C(F)(F)F)C(OC(=O)N(C)C)c1ccn(C)n1 (mixture of isomers) [Compound 3.20]
very good: post-emergence control of green foxtail [1] | post-emergence control of pig weed [2] | post-emergence control of lambsquarters [3]

CNC(=O)C(NC(=O)c1ccccc1C(F)(F)F)C(O)c1ccn(C)n1 (mixture of isomers) [Compound 3.14]
very good: post-emergence control of green foxtail [1] | post-emergence control of pig weed [2] | post-emergence control of lambsquarters [3]

CNC(=O)C(NC(=O)c1ccc(F)cc1C(F)(F)F)C(O)c1ccc[n+]([O-])c1Cl (mixture of isomers) [Compound 3.41]
very good: post-emergence action against green foxtail [1] | post-emergence action against pig weed [2] | post-emergence action against lambsquarters [3]

CNC(=O)C(NC(=O)c1ccc(F)cc1C(F)(F)F)C(OC(=O)N(C)C)c1ccccn1 (mixture of isomers) [Compound 3.69]
very good: post-emergence action against green foxtail [1] | post-emergence action against pig weed [2] | post-emergence action against lambsquarters [3]

CNC(=O)C(NC(=O)c1ccc(F)cc1C(F)(F)F)C(OC(=O)N(C)C)c1cccs1 (mixture of isomers) [Compound 3.10]
very good: post-emergence action against green foxtail [1] | post-emergence action against pig weed [2] | post-emergence action against lambsquarters [3]

CNC(=O)[C@@H](NC(=O)c1ccc(F)cc1C(F)(F)F)C(OC(=O)N(C)C)c1cccs1 (stereo partly drawn) [Compound 3.65]
very good: post-emergence action against green foxtail [1] | post-emergence action against pig weed [2] | post-emergence action against lambsquarters [3]

CNC(=O)C(NC(=O)c1ccc(F)cc1C(F)(F)F)C(OC(C)=O)c1cccnc1Cl (racemic) [Compound 3.56]
very good: post-emergence action against green foxtail [1] | post-emergence action against pig weed [2] | post-emergence action against lambsquarters [3]

CNC(=O)C(NC(=O)c1ccc(F)cc1C(F)(F)F)C(OC(C)=O)c1ccncc1Cl (racemic) [Compound 3.59]
very good: post-emergence action against green foxtail [1] | post-emergence action against pig weed [2] | post-emergence action against lambsquarters [3]

CNC(=O)C(NC(=O)c1ccc(F)cc1C(F)(F)F)C(OC(C)=O)c1cnccc1Cl (racemic) [Compound 3.57]
very good: post-emergence action against green foxtail [1] | post-emergence action against pig weed [2] | post-emergence action against lambsquarters [3]

CNC(=O)C(NC(=O)c1ccc(F)cc1C(F)(F)F)C(OC(=O)N(C)C)c1ccc(Cl)s1 (mixture of isomers) [Compound 3.66]
very good: post-emergence action against green foxtail [1] | post-emergence action against pig weed [2] | post-emergence action against lambsquarters [3]

CNC(=O)C(NC(=O)c1ccccc1C(F)(F)F)C(OC(=O)N(C)C)c1ccn(C)n1 (mixture of isomers) [Compound 3.21]
very good: post-emergence action against green foxtail [1] | post-emergence action against pig weed [2] | post-emergence action against lambsquarters [3]

CNC(=O)[C@@H](NC(=O)c1ccc(F)cc1C(F)(F)F)C(OC(=O)CSC)c1cccs1 (stereo partly drawn) [Compound 3.63]
very good: post-emergence action against green foxtail [1] | post-emergence action against pig weed [2] | post-emergence action against lambsquarters [3]

CNC(=O)C(NC(=O)c1ccc(F)cc1C(F)(F)F)C(O)c1cccnc1Cl (mixture of isomers) [Compound 3.40]
very good: post-emergence control of green foxtail [1] | post-emergence control of pig weed [2] | post-emergence control of lambsquarters [3]

CNC(=O)C(NC(=O)c1ccc(F)cc1C(F)(F)F)C(OC(=O)N(C)C)c1cnccc1Cl (racemic) [Compound 3.74]
very good: post-emergence action against green foxtail [1] | post-emergence action against pig weed [2] | post-emergence action against lambsquarters [3]

CNC(=O)C(NC(=O)c1ccc(F)cc1C(F)(F)F)C(OC(=O)N(C)C)c1ccsc1 (mixture of isomers) [Compound 3.11]
very good: post-emergence control of green foxtail [1] | post-emergence control of pig weed [2] | post-emergence control of lambsquarters [3]
